Here are results for six molecules from patent US20210292755A1, “NOVEL DOUBLE-STRANDED OLIGONUCLEOTIDES FOR THE TREATMENT OF CANCER” (SELEXEL, priority 2016, published 2021).

Data set [1] relates to 22RV1 human prostatic tumor. Nature of the data set: Subcutaneous tumor volume in mice. The following applies: twice a week. It is filed as in vivo. Here is the method:
Tumors are obtained by subcutaneous injection of tumor cells into the flank of Nude mice. Only animals on which tumor uptake is found are included in the study and randomized to receive treatment or control treatment.
When indicated, the continuous administration of siRNA is carried out by implantation of an Alzet osmotic pump subcutaneously on the back of the mice, on the opposite side to the tumor when the mice wear one. The concentration of siRNA in the pump is adjusted to deliver the indicated amount in mg/kg/day taking into account the pump flow rate indicated by the manufacturer.
The subcutaneous tumors volume is estimated by measuring with a calliper the largest (D), the smallest (d) diameter of the tumors and their height (h). The volume is calculated by the formula V=D×d×h×Pi/6.

The test system of data set [2] is 53BP1. Description: Indirect immunofluorescence of 53BP1, bleomycin-treated transfected cells. It is filed as cell-based, human. The following applies: C4-2 cells transfected with Cont siRNA, 6 hours with 10 μl of bleomycin. Here is the method:
(§1) FIG. 8: Immuno detection of γH2AX (first column) and 53BP1 (second column) in C4-2 cells treated for 6 h with bleomycin ([…]) or the vehicle added 72 h after transfection of cells by a control siRNA (Cont), siAR7 siRNA, or siARH2AX-1.
(§2) All the cells used in the following examples are human cells and express H2AX.
(§3) The cells are cultured in DMEM or RPMI supplemented with 10% fetal calf serum, or as recommended by the ATCC. When indicated, they are transfected with siRNA using lipofectamine (Life Technologies), following the supplier's protocol. The number of living cells after the indicated treatments was quantified by measuring their metabolic activity by the WST1 test according to the supplier's indications (Roche).
(§4) The effect of siRNA transfection and/or treatments by different chemotherapeutic agents on gene expression was measured: • by RT-qPCR quantification of mRNAs extracted by a conventional phenol-chloroform method (Trizol). The amount of RNA was normalized by measuring the cyclophilin A-encoding mRNA which is not regulated by AR (delta delta CT method). • by Western blotting on protein extracts. The antibodies used are: AR: Santacruz, N-20 sc-816; H2AX: Merck Millipore ref 07-627; Tubulin: Sigma T6199; Actin: Merck Millipore MAB 1501; γH2AX: Merck Millipore 05-636. […] The antibodies used are the following: γH2AX: Merck Millipore 05-636; 53BP1: Novus, NB 100-304.
(§5) In the experiment shown in FIG. 8, C4-2 cells were transfected with a control or siARH2AX-1 siRNA. 72 hours after transfection, the cells were then treated for 6 hours with […] of bleomycin or the corresponding vehicle.

Data set [3] has as its system γH2AX. Description: Indirect immunofluorescence of γH2AX, bleomycin-treated transfected cells. The class given is cell-based, human. How it is done:
as §1, §2, §3, §4, §5

Data set [4] has as its system MDA MB231 cells. Description: WST1 cell viability test. The class given is cell-based, human. The following applies: for cell viability, siRNA combined with etoposide: 40 μl of etoposide added 24 hours after transfection, WST1 48 h later. Here is the method: as §2, §3
(In general: Tetrazolium assays rely on reduction of a dye to a coloured formazan, in cell work by metabolically active cells.)

Data set [5] deals with C4-2 cells. Description: WST1 cell viability test. It is filed as cell-based, human. Here is the method:
as §2, §3

Data set [6] has as its system AR-encoding mRNA. Nature of the data set: RT-qPCR of AR-encoding mRNA after siRNA transfection. It is filed as cell-based, human. The following applies: for AR mRNA expression: both lines. How it is done: as §2, §3, §4
(Quantitative PCR measures a nucleic acid by following its amplification.)

Data set [7] relates to H2AX-encoding mRNA. Nature of the data set: RT-qPCR of H2AX-encoding mRNA after siRNA transfection. It is filed as cell-based, human. The following applies: for H2AX mRNA expression: both lines. Here is the method:
as §2, §3, §4

Data set [8] relates to LNCaP cells. Nature of the data set: WST1 cell viability test. The class given is cell-based, human. The following applies: 72 hr after transfection. How it is done: as §2, §3
In data set [9] the test system is PSA-encoding mRNA. Nature of the data set: RT-qPCR of PSA-encoding mRNA after siRNA transfection. The class given is cell-based, human. Particulars: LNCaP or C4-2 cells, both lines, 72 hours after transfection. How it is done: as §2, §3, §4
In the experiment shown in FIG. 4, the LNCaP or C4-2 tumor cells were transfected with the following siRNAs: Cont, siAR7 or siARH2AX-1.

Data set [10] has as its system 22RV1 cells. Nature of the data set: WST1 cell viability test. The class given is cell-based, human. The following applies: 72 hr after transfection. How it is done:
as §2, §3

The subject of data set [11] is WM266-4 cells. Description: WST1 cell viability test. Particulars: for cell viability, siRNA combined with etoposide: 40 μl of etoposide added 24 hours after transfection, WST1 48 h later. It is filed as cell-based, human. Here is the method: as §2, §3
For data set [12], the system named is AR. Description: Western blot of AR after siRNA transfection. The following applies: C4-2 cells, 72 h after transfection. It is filed as cell-based, human. How it is done:
as §2, §3, §4

Data set [13] relates to U87 cells. Description: WST1 cell viability test. It is filed as cell-based, human. Particulars: 72 hr after transfection. Here is the method:
as §2, §3

In data set [14] the test system is MDA MB-453 cells. Description: WST1 cell viability test. It is filed as cell-based, human. Particulars: 72 hr after transfection. How it is done: as §2, §3
Data set [15] concerns H2AX. Nature of the data set: Western blot of H2AX after siRNA transfection. It is filed as cell-based, human. The following applies: C4-2 cells, 72 h after transfection. Here is the method: as §2, §3, §4
In general terms: Immunoblotting shows a protein as a band on a membrane.

Where [16] appears, read: C4-2 cells, 48 hours after transfection, relative to control siRNA.
The mark [17] stands for this setting: LNCaP or C4-2 cells, 72 hours after transfection.
The mark [18] stands for this setting: LNCaP or MDA MB-453 cells, 72 h after transfection.

For the molecule `COc1cc([C@@H]2c3cc4c(cc3[C@@H](O[C@@H]3O[C@@H]5CO[C@@H](C)O[C@H]5[C@H](O)[C@H]3O)[C@H]3COC(=O)[C@H]23)OCO4)cc(OC)c1O` [etoposide], the tumor development result in data set [1] (etoposide 5 mg/kg intraperitoneal) is “only slightly inhibits tumor development”; in data set [1] (etoposide 15 mg/kg intraperitoneal), “produces an inhibition”.
For the molecule bleomycin, in data set [2], the 53BP1 labeling entry was “becomes punctiforme”. For the same molecule, the “expression of γH2AX” value in data set [3] (C4-2 cells transfected with Cont siRNA, 6 hours with 10 μl of bleomycin) is on record as “strongly increases”.
With “siAR2: siRNA inhibiting AR described in PCT/FR2002/003843, SEQ ID NO 9 and SEQ ID NO 10 (chain 1 GACUCAGCUGCCCCAUCCACGNN; chain 2 CGUGGAUGGGGCAGCUGAGUCNN; chemistry not fully specified)”, the cell viability result in [4] (90 hours after transfection) and in [5] (90 hours after transfection) was “only marginally” in each case. Moreover, the “cell viability, siRNA combined with bleomycin” value in data set [5] (bleomycin (10 μM) added 48 hours after transfection, read 48 hours later, versus chemotherapeutic agent alone) is “does not produce a significantly greater viability-inhibiting effect”. The “cell viability, siRNA combined with etoposide” value (“cell viability … with etoposide” below) in [5] (etoposide (10 μM) added 48 hours after transfection, read 48 hours later, versus chemotherapeutic agent alone) is on record as “does not produce a significantly greater viability-inhibiting effect”. Further, in data set [6] (setting [16]), the “AR expression (mRNA)” value is given as “inhibit AR expression in a similar manner”. The “H2AX expression (mRNA)” value in [7] (setting [16]) is listed as “considerably less effective at inhibiting the expression of H2AX”.
Regarding “siAR7: siRNA hybridizing with a sequence of the 7th exon of AR, not H2AX; SEQ ID NO 13 and 14 (chain 1 AAUGAUACGAUCGAGUUCCNN; chain 2 GGAACUCGAUCGUAUCAUUNN; chemistry not fully specified)”, the “cell viability / proliferation” value in data set [5] (72 hr after transfection) and in [8] was “inhibit the proliferation” in each case. The “AR mRNA expression” value in data set [6] (setting [17]) was “inhibit the expression of AR and PSA”. Besides, the “γH2AX labeling after bleomycin” value in [3] (siRNA-transfected C4-2 cells, 72 hours after transfection, bleomycin 6 hours) is “increase in γH2AX labeling”. Moreover, in data set [9], the “PSA mRNA expression” value was “inhibit the expression of AR and PSA”. The “H2AX mRNA expression” value in [7] (setting [17]) is “only siARH2AX-1 also inhibits the expression of H2AX”.
Turning to “siARh: siRNA hybridizing with a sequence of the first exon of AR, not H2AX; SEQ ID NO 11 and 12 (chain 1 UCCCCAAGCCCAUCGUAGANN; chain 2 UCUACGAUGGGCUUGGGGANN; chemistry not fully specified)”, the “cell viability … with etoposide” value in [4] and in [11] was “no amplification of the effects of etoposide” in each case. Besides, the “cell viability / proliferation” value in [10] is reported as “inhibit the proliferation”. Moreover, the “AR mRNA expression” value in data set [6] (setting [18]) is “inhibits AR”. Moreover, the AR protein expression result in [12] is listed as “inhibits AR”.
On to “siH2AX: siRNA hybridizing with H2AX mRNA but not with that of AR; SEQ ID NO 15 and 16 (chain 1 CUGGAAUUCUGCAGCUAACNN; chain 2 GUUAGCUGCAGAAUUCCAGNN; chemistry not fully specified)”, for which the “cell viability … with etoposide” value in data set [4] and in data set [11] was “no amplification of the effects of etoposide” throughout. The “cell viability / proliferation” value in data set [4] (72 hr after transfection), in [10], in [11] (72 hr after transfection), in data set [13] and in data set [14] was “has little effect on cell proliferation” each time. The “H2AX mRNA expression” value in data set [7] (setting [18]) was “inhibits H2AX”. Moreover, the H2AX protein expression result in [15] is reported as “inhibits H2AX”.
